One experiment concerns A549. The experiment is described as follows: Cytotoxicity against human A549 cells by MTT assay. Format: functional, cell-based. A general note: Formazan colour is commonly taken as a measure of viable cells.
The next experiment concerns P388. The experiment is described as follows: Cytotoxicity against mouse P388 cells by MTT assay. Format: functional, cell-based.
Another experiment concerns Klebsiella aerogenes. The experiment is described as follows: Antimicrobial activity against Enterobacter aerogenes ATCC 13048 at 100 ug/disk. Format: functional, organism-based.
In a further experiment the test system is Salmonella enteritidis. The experiment is described as follows: Antimicrobial activity against Salmonella enteritidis ATCC 13076 at 100 ug/disk. Format: functional, organism-based. The following applies: Salmonella enterica subsp. enterica serovar Enteritidis.
In another experiment the test system is Serratia marcescens. The experiment can be described thus: Antimicrobial activity against Serratia marcescens ATCC 25419 at 100 ug/disk. Format: functional, organism-based.
For a further experiment, the system named is Shigella sonnei. The experiment can be described thus: Antimicrobial activity against Shigella sonnei ATCC 11060 at 100 ug/disk. Format: functional, organism-based.
The test system of another experiment is Yersinia enterocolitica. The experiment can be described thus: Antimicrobial activity against Yersinia enterocolitica ATCC 23715 at 100 ug/disk. Format: functional, organism-based.
The test system of another experiment is Human betaherpesvirus 5. The experiment can be described thus: Antiviral activity against HCMV infected in HEL cells assessed as reduction of virus plaque formation. The following applies: Human betaherpesvirus 5, HEL. Format: functional, organism-based.
In a further experiment the test system is RAW264.7. The experiment can be described thus: Antiinflammatory activity in mouse RAW264.7 cells assessed as iNOS protein expression level at 10 uM. Format: functional.

Active and inactive are the calls of the source. The rule behind the calls is not given here.

As to `C=C(CCC=C(C)C)[C@@H]1CC/C(C)=C/CCC(=C)[C@@H](O)C1`, the inhibition result in the experiment with A549, with P388, in the experiment on Klebsiella aerogenes, in the experiment with Salmonella enteritidis, in the experiment with Serratia marcescens and in the experiment with Shigella sonnei was “inactive” each time. Moreover, the inhibition result in the experiment on Yersinia enterocolitica is “inactive”.

In general, IC50 refers to the concentration that inhibits the measured activity by half. For `C=C(CCC=C(C)C)[C@H]1CC[C@@]2(C)[C@H](C1)C(C)=CC[C@@H]2O` [GYROSANOL A], the inhibition entry in the experiment on A549, in the experiment on P388, in the experiment with Klebsiella aerogenes, in the experiment on Salmonella enteritidis, in the experiment on Serratia marcescens and with Shigella sonnei was “inactive” in each case. The inhibition entry with Yersinia enterocolitica was “inactive”. The half-inhibitory concentration (IC50) with Human betaherpesvirus 5 is 2600 nM. The Activity with RAW264.7 was 118.5%.
